# Patent US11208559B2, “Modified indigo compounds and methods of dyeing a substrate using a modified indigo compound” (VF Jeanswear LP, priority 2016, dated 2021)
# What was measured:
# Type in all cases: physicochemical
# [1] = Solubility studies in water (centrifugation, weighing of undissolved solids); conditions: for Highest Solubility Measured (wt. %): in water, corrected for insoluble solids, true maximum solubility not determined; for average percent solids removed: undissolved solids removed during centrifugation of aqueous solutions
# Description: The solutions were prepared by adding a known amount of dye to a known amount of water and agitating the solution. Separately, each solution of known concentration was centrifuged for 30 minutes to separate out any undissolved solids. The supernatant was decanted and the remaining undissolved solids were dried at 50° C. and later weighed to determine wt. % of soluble portion.
# The actual concentration was determined by centrifuging the dye solutions extensively to remove any undissolved solids. The undissolved solids were then isolated, dried, and weighed.
# Note that in all instances, a true maximum solubility in water has not been determined due to the very high solubility of the compounds in water. For all compounds, the maximum solubility was corrected for the amount of insoluble solids that were isolated during centrifugation.
# [2] = Hydrolysis to indigo under hydrolyzing conditions
# [3] = Storage stability of aqueous dye solution at room temperature, UV-Vis spectra; conditions: for compound converted to indigo: room temperature, 5 day period
# Description: All UV-Vis spectra were obtained using a Varian Cary 6000i UV-Vis spectrophotometer.
# The stability of Compound 8 was measured by diluting samples of the compound in water to provide 0.01 and 3% wt. % solutions. The solutions were then stored at room temperature for 5 days. The UV-Vis spectra of the solution after 1, 2, and 5 days were obtained. FIGS. 3 and 11A are the UV-Vis spectra which show the robustness of the dye compound after at least 2 days of storage at room temperature at both concentrations.
# The longer term stability of Compound 8 was measured by diluting a sample of the compound in water to provide a 0.01 wt. % solution containing 0.1M NaCl (aq). The solution was then stored at room temperature for 5 days. The UV-Vis spectra of the solution were obtained daily over the 5 days.
# The stability of Compound 8 was measured by preparing a 0.01 wt. % aqueous solution of compound 8 in water. The solution was then stored at room temperature for 2 days. The UV-Vis spectra of the solution after 1 and 2 days were obtained. FIG. 11B are the UV-Vis spectra which show the robustness of the dye compound after at least 2 days of storage at room temperature at both concentrations.
# [4] = Insoluble solids filtered from stored dye solution with sodium sulfate (Test 4); conditions: 2 wt. % aqueous solution, 0.45 micron filter
# Description: Aqueous solutions of 2 wt. % of Compound 8 were prepared with varying concentrations of sodium sulfate and then filtered through a 0.45 micron PVDF syringe filter after one day of room temperature storage. The filters were then dried at 120° C., cooled to room temperature, and weighed to quantify the amount of insoluble solids that had precipitated out of solution during storage.
# In a control experiment, the weight change (−0.35%) was determined for a syringe filter that was flushed with 10 mL distilled water and then dried at 120° C.
# [5] = Air stability of aqueous solution, UV-Vis spectra
# Description: The air stability of Compound 8 was measured by diluting of the compound in water to provide a 0.01 wt. % solution. […] The solid line represents the stability of the Compound 8 aqueous solution under atmospheric conditions. The dashed line represents the stability of the Compound 8 aqueous solution after treatment with 15 minutes of nitrogen purging of the solution, followed by storage for 1 day in a vial equipped with a rubber septum. See, FIG. 10. The UV-Vis spectra of the solutions were obtained.
# [6] = Relative kinetics of degradation (hydrolysis) monitored by UV-Vis spectrophotometry; conditions: 0.01 wt. % with 0.1M NaCl aqueous versus 0.01 wt. % without salt, room temperature
# Description: In this example, the relative kinetics of degradation for two conditions for Compound 8 were measured. One solution contained 0.01 wt. % of Compound 8 and 0.1M NaCl aqueous and the other solution contained 0.01 wt. % of Compound 8. Both solutions were stored at room temperature and the hydrolysis monitored using UV-Vis spectrophotometry. See, FIG. 13.
# [7] = Dilution of stock solution into distilled water, comparison with leuco-indigo; conditions: for time to turn blue / convert back to indigo after dilution: 1 mL stock solution in 20 mL distilled water, no excess reducing agent
# Description: The stability and visual observations comparing what occurs when an aqueous stock solution of leuco-indigo and an aqueous solution Compound 8 were obtained. The leuco-indigo stock solution was prepared using 0.2 wt. % indigo powder, 0.5 wt. % NaOH, and 0.5 wt. % sodium hydrosulfite, the solution was heated to 50-60° C. for 30 minutes, and the solution was then allowed to cool to room temperature. An aqueous solution containing 3 wt. % of Compound 8 was prepared. 1 mL of each solution was then added to 20 mL of distilled water and physical observations were made. See, Table 3.
# [8] = Heat treatment of dyed cotton fabric, conversion to indigo; conditions: 4 minutes
# Description: Prepared for dye (PFD) 3×1 twill cotton fabric dyed with Compound 8 prepared by dipping in an aqueous solution containing 3 wt. % of Compound 8, padding, and drying at 50° C. The samples were then placed separately into a lab-scale tenter frame for heat treatment. See, FIG. 20 showing the dyed fabric exposed to 100° C. (left), 150° C. (middle), and 180° C. (right).
# [9] = Atmospheric steam treatment of dyed cotton skein, conversion to indigo; conditions: steam under atmospheric conditions for 30 minutes
# Description: Cotton skeins were pretreated with 1 M NaOH (aq), dyed with a 3 wt. % aqueous solution of Compound 8, hydrolyzed using 1 M NaOH (aq), and then rinsed with water. One skein was dried at 50° C. and remains purple in color. See, the top skein in FIG. 21. The other skein was dried at 50° C. and then exposed to steam under atmospheric conditions for 30 minutes, resulting in the attainment of a blue hue. See, the botton skein in FIG. 21.
# [10] = Stability of Compound 4 in water, UV-Vis spectra; conditions: 3 wt. % aqueous solution, room temperature, up to 2 days
# Description: The stability of compound 4 was determined. An aqueous solution of 3 wt. % of Compound 4 was prepared at stored at room temperature for 2 days. The UV-Vis spectra for each solution were obtained prior to storage, 3 hours, 1 day, and 2 days. The solution was then diluted by a factor of 300 and the UV-Vis spectrum of FIG. 15 obtained.
# [11] = 1 mL stock solution added to 20 mL distilled water
smiles,measurement,setting,value
O=C1/C(=C2/C(=O)c3ccccc3N2C(=O)c2ccncc2)N(C(=O)c2ccncc2)c2ccccc21 [Compound 37],Highest Solubility Measured (wt. %),[1],1.6 wt. %
same,average percent solids removed,[1],about 26%
same,hydrolysis to indigo,[2],hydrolyzes to indigo
C[n+]1ccc(C(=O)N2/C(=C3\C(=O)c4ccccc4N3C(=O)c3cc[n+](C)cc3)C(=O)c3ccccc32)cc1 [Compound 8],robustness of the dye compound on storage at room temperature,"[3]; 0.01 and 3 wt. % solutions in water, FIGS. 3 and 11A",at least 2 days
same,compound converted to indigo,[3]; 0.01 wt. % solution containing 0.1M NaCl (aq),9%
same,compound converted to indigo,[3]; 0.01 wt. % solution in water,41%
same,robustness of the dye compound on storage at room temperature,"[3]; Example 27, 0.01 wt. % aqueous solution, FIG. 11B",at least 2 days
same,Fraction of dye compound removed during filtration (%),"[4]; 0.1M Na2SO4, one day at room temperature",2.85%
same,Fraction of dye compound removed during filtration (%),"[4]; 0.5M Na2SO4, one day at room temperature",−0.4%
same,Fraction of dye compound removed during filtration (%),"[4]; 1M Na2SO4, one day at room temperature",0.1%
same,"UV-Vis spectra after one day, stored under nitrogen versus atmospheric conditions","[5]; 0.01 wt. % solution in water, 1 day at 8° C.",identical
same,air stability in solution,"[5]; aqueous solution, storage at room temperature for 2 days",air stable
same,hydrolysis rate with salt relative to without salt (factor slower),[6],six
same,Observation on dilution (color),[7]; [11],Dark purple solutions became lighter
same,UV-Vis spectra of diluted solutions,[7]; [11],superimposable - consistent with no
same,Highest Solubility Measured (wt. %),[1],40 wt. %
same,average percent solids removed,[1],about 2%
same,conversion to indigo by heat,[8]; 100° C.,no conversion
same,conversion to indigo by heat,[8]; 150° C.,slower conversion
same,conversion to indigo by heat,[8]; 180° C.,relatively rapid conversion
same,conversion to indigo by steam,[9],conversion to indigo
C[n+]1cccc(C(=O)N2/C(=C3\C(=O)c4ccccc4N3C(=O)c3ccc[n+](C)c3)C(=O)c3ccccc32)c1 [Compound 4],stability in water compared to Compound 8,[10],relative instability
O=C1/C(=C2/C(=O)c3ccccc3N2C(=O)c2ccncc2)N(C(=O)c2ccncc2)c2ccccc21 [Compound 35],Highest Solubility Measured (wt. %),[1],1.7 wt. %
same,average percent solids removed,[1],about 26%
"Oc1c(-c2[nH]c3ccccc3c2O)[nH]c2ccccc12 [Leuco-indigo, leuco-indigo]",Observation on dilution (color),[7]; [11],blue-green solution immediately
same,time to turn blue / convert back to indigo after dilution,[7],solution turned blue under 10 seconds
same,time to turn blue / convert back to indigo after dilution,[7]; listed as leuco-indigo,less than 10 seconds
